Active and inactive are the calls of the source.
Tests used:
[1] = P. falciparum Dd2 growth inhibitors, dose response, SYBR Green, dry powder samples (AID 1159566); format: functional, cell-based;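 further: potency for growth inhibition with lower SYBR green DNA signal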
[2] = P. falciparum Dd2 growth inhibitors, dose response, SYBR Green, cherry-picked samples (AID 1159567); format: functional, cell-based
[3] = P. falciparum ATP4 D1247Y mutant growth inhibitors, dose response, NITD609-resistant line, SYBR Green, dry powder (AID 1159571); format: functional, cell-based;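 further: parasites synchronized at ring stage by sorbitol before testing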
[4] = P. falciparum 3D7-ScDHODH growth inhibitors, dose response, SYBR Green, dry powder samples (AID 1159570); format: functional, cell-based;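 further: parasite growth measured after 72 hours of compound exposure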
[5] = Shn3 3'UTR reporter inhibitors, dose response, cell-based, Clone20 osteoblasts, firefly luciferase, cherry-picked (AID 624132); format: functional;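 further: firefly luciferase luminescence from reporter carrying the Shn3 3'UTR in osteoblasts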
[6] = HepG2 cell cytotoxicity, dose response, cytotoxicity control for Shn3 inhibitor project, CellTiter-Glo, cherry-picked (AID 624134); format: functional, cell-based
INS1 = test: beta cell apoptosis inhibitors, cytokine rescue, dose response, luminescence, retest (AID 449756); format: functional, cell-based; details: Rattus norvegicus;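 further: cell death triggered by IL-1 beta plus TNF-alpha plus IFN-gamma mixture; protective hits raise ATP signal compared with cytokine alone wells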
[7] = cytotoxicity toward NIH3T3 fibroblasts, dose response, counter-screen, cell-based, ATP luminescence, mouse fibroblasts (AID 2010); format: functional;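 further: cells exposed to compound for about 90 hours before reading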
[8] = inhibitors of intracellular T. cruzi replication, confirmation, NIH3T3 host cells, beta-gal luminescence (AID 2044); format: functional, cell-based;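 further: intracellular parasites grown in NIH/3T3 mouse fibroblasts as host cells; luminescent beta-galactosidase reporter signal from transgenic T. cruzi replicating inside host cells; inhibitors lower the luminescence signal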
[9] = control 3'UTR Renilla luciferase suppression, dose response, counter-screen for Shn3 inhibitor project, cell-based, Clone20-Shn3RL, cherry-picked (AID 624133); format: functional
[10] = MC4R antagonists, dose response, counter-screen for LGR2 antagonist project, cell-based, plate reader, cherry pick (AID 743444); format: functional;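 further: transfected HEK 293 cells stimulated with alpha-MSH peptide; potency of inhibitors of the alpha-MSH evoked signal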
BJ [11] = test: cytotoxicity toward BJ-TERT-LT-ST fibroblasts, dose response, cell-based, RAS-independent, luminescence (AID 1935); format: functional; details: Homo sapiens;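 further: BJ fibroblasts immortalized with TERT plus LT and ST oncogenes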
[12] = A549 cell cytotoxicity, dose response, cytotoxicity control, plate reader, cherry-pick, antagonist series (AID 743412); format: functional, cell-based
Vero = test: cells; format: functional; details: Chlorocebus sabaeus
[13] = LGR2 antagonists, dose response, cell-based, HEK293, CRE-luciferase reporter, cherry pick, set 2 (AID 743343); format: functional;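 further: transfected cells were stimulated with diluted bursicon conditioned medium after compound addition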
BJ [14] = test: cells; format: functional, cell-based; details: Homo sapiens
[15] = cytotoxicity toward DRD oncogenic fibroblasts, dose response, cell-based, non-viral oncogenic, luminescence (AID 1934); format: functional; details: Homo sapiens
[16] = HepG2 cell cytotoxicity, dose response, cytotoxicity control, plate reader, cherry-pick, antagonist series (AID 743416); format: functional, cell-based
[17] = biological target: T1, Microphthalmia-associated transcription factor (Homo sapiens, UniProt O75030); test: TRPM1 promoter luciferase signal decrease, dose response, MITF inhibitor project, cell-based, SK-MEL-5, cherry-picked, set 3 (AID 493073); format: functional
T1 sequence (O75030 whole entry): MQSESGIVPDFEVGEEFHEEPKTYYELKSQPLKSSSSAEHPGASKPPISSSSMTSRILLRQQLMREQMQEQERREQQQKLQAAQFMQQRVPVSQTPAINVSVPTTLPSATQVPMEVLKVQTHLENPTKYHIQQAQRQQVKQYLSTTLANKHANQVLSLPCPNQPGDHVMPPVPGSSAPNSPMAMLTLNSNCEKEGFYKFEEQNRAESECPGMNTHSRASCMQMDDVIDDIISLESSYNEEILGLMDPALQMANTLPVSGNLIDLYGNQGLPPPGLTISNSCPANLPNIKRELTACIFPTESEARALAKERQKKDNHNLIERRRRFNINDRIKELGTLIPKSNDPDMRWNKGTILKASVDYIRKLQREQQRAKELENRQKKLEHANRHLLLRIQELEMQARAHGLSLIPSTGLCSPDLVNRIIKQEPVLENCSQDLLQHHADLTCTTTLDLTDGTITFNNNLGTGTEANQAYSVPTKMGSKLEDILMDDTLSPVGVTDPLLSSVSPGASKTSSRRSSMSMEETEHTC

[18] = HEK293 cell cytotoxicity, dose response, cytotoxicity control, plate reader, cherry-picked samples (AID 743446); format: functional, cell-based
Caspase-6 = biological target: T2, Caspase-6 (Homo sapiens, UniProt P55212); test: human caspase-6 inhibitors, dose response, biochemical, VEID-R110 fluorescence, cherry-pick (AID 720632)
T2 sequence (P55212 whole entry): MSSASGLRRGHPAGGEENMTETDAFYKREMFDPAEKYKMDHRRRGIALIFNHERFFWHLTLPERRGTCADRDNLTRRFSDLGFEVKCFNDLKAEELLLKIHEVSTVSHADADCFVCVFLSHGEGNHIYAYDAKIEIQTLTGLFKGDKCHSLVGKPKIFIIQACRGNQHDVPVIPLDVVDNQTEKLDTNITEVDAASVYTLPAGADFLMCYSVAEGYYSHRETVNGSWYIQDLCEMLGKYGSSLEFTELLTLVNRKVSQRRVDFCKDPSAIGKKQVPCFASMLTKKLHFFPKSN

BJ [19] = test: cytotoxicity toward BJ-TERT fibroblasts, dose response, cell-based, RAS-independent, luminescence (AID 1933); format: functional; details: Homo sapiens
[20] = inhibitors of HIV Env-driven cell fusion, dose response, cherry-pick (AID 652057); format: functional, cell-based
[21] = ZM109 Env clade C HIV-1 fusion inhibitors, dose response, HeLa effector, CEM target cells, luciferase, cherry-pick (AID 652058); format: functional, cell-based
[22] = inhibitors of clade B AD8 Env fusion, dose response, cell-based, cherry-pick (AID 652062); format: functional;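 further: luciferase signal from cell-cell fusion driven by HIV-1 clade B AD8 Env; potency is for inhibitors of fusion seen as a drop in luminescence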
[23] = HEp-2 cell cytotoxicity, dose response, cytotoxicity control for RSV inhibitor project, HTS (AID 2410); format: functional; details: human respiratory syncytial virus
[24] = Luminescence Cell-Based Dose Retest to Confirm Inhibitors of Cancer Stem Cells. [Related pubchem assays (depositor defined):AID2717, AID2721]; format: functional; details: Homo sapiens
[25] = A Cell Based Secondary Assay To Explore Cytotoxicity of Compounds that Sensitize Mycobacterium Tuberculosis to Beta-Lactam Antibiotics.; format: functional
[26] = biological target: T3, Apoptotic protease-activating factor 1 (Homo sapiens, UniProt O14727); format: functional
T3 sequence (O14727 whole entry): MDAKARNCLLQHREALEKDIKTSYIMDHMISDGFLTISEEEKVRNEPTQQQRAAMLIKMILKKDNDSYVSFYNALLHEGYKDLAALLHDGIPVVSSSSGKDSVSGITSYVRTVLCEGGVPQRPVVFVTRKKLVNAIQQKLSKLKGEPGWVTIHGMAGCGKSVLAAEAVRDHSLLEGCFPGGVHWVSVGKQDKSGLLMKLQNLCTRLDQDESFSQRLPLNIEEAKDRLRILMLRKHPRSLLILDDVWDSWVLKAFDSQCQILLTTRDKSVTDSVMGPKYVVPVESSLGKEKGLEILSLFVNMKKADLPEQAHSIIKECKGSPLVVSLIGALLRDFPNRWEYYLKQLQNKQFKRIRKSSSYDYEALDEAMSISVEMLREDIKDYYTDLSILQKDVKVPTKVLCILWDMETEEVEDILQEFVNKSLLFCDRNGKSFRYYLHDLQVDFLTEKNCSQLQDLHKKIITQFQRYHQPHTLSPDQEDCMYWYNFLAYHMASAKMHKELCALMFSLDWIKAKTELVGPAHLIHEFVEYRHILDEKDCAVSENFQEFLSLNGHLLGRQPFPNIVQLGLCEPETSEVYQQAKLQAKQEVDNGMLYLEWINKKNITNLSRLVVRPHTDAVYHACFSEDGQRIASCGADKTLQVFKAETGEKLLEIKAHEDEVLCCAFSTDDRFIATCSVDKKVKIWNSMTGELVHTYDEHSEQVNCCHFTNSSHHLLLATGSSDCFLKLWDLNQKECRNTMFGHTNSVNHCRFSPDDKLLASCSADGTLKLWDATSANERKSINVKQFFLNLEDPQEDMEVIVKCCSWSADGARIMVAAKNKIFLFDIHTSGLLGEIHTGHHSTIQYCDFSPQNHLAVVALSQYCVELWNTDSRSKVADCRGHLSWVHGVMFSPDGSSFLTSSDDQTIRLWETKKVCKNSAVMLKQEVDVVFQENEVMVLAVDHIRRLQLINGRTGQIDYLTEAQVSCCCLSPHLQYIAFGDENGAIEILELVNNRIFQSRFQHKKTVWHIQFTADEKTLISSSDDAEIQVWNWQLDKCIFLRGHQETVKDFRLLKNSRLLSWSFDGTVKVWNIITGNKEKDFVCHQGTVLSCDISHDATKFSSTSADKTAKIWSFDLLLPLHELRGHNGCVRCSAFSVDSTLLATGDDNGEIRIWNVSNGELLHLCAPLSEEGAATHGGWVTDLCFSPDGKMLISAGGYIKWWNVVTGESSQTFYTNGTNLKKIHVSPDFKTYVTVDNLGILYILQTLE

[27] = off-target signal loss in HeLa-CEM21 co-culture – HeLa F-luc CTL cells, cherry-picked, counter-screen for HIV-1 Env fusion inhibitor project, dose response (AID 652040); format: functional, cell-based;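 further: potency for signal decrease marking cytotoxic or nonspecific inhibition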

Question: Which AC50 [1] does the source give for `COc1ccc2c3c(n(C)c2c1)[C@@H](CO)N(CC1CCCCC1)CC31CCN(Cc2nccs2)CC1` here?
Answer: 1.03 µM (active)

Question: And the AC50 [2]?
Answer: 1.12 µM (active)

Question: And the AC50 [3]?
Answer: 0.891 µM (active)

Question: What about the AC50 [4] of the same molecule?
Answer: 0.835 µM (active)

Question: For `CCOc1ccc(-[n+]2c(-c3ccccc3)cn3c2CCC3)cc1`, which AC50 [5] is on record?
Answer: 0.526 µM (active)

Question: What about the AC50 [6] of the same molecule?
Answer: 49 µM (active)

Question: And the AC50 (INS1)?
Answer: 1.43 µM (active)

Question: And the EC50 [7]?
Answer: 24.2 µM (active)

Question: What about the EC50 [8] of the same molecule?
Answer: 0.351 µM (active)

Question: What about the AC50 [9] of the same molecule?
Answer: 0.392 µM (active)

Question: For `O=S(=O)(c1ccc(F)cc1)c1snnc1-c1ccccc1`, which AC50 [10] is on record?
Answer: 5.8 µM (active)

Question: And the EC50 (BJ [11])?
Answer: 6.51 µM (inconclusive)

Question: What about the AC50 [12] of the same molecule?
Answer: 11.1 µM (active)

Question: And the CC50 (Vero)?
Answer: 6.75 µM (active)

Question: And the AC50 [13]?
Answer: 9.39 µM (active)

Question: And the EC50 (BJ [14])?
Answer: 6.66 µM (inconclusive)

Question: What about the EC50 [15] of the same molecule?
Answer: 7.55 µM (active)

Question: And the AC50 [16]?
Answer: 46.5 µM (active)

Question: What about the AC50 [17] of the same molecule?
Answer: 15.1 µM (active)

Question: What about the AC50 [18] of the same molecule?
Answer: 4.15 µM (active)

Question: And the AC50 (Caspase-6)?
Answer: 6.26 µM (active)

Question: What about the EC50 (BJ [19]) of the same molecule?
Answer: 4.69 µM (inconclusive)

Question: What does the source list for `COc1ccc(NC(=O)N2CCCCN3[C@H](CO)[C@H](c4ccc(C#Cc5ccccn5)cc4)[C@@H]3C2)cc1`?
Answer: AC50 [1]: 0.131 µM (active); AC50 [2]: 0.301 µM (active); AC50 [3]: 0.109 µM (active); AC50 [4]: 0.109 µM (active)

Question: Which AC50 [20] does the source give for `CC(C)C[C@H]1COCn2nncc2CC[C@@H](Cc2ccccc2)C(=O)N1` here?
Answer: 7.3 µM (active)

Question: And the AC50 [21]?
Answer: 7.51 µM (active)

Question: And the AC50 [22]?
Answer: 12.9 µM (active)

Question: Which CC50 [23] does the source give for `CCOc1ccc(/C=C/C(O)=C2/C(=O)N(C)C3(C)CC2c2ccccc2O3)cc1OC` (stereo not drawn) here?
Answer: 2.92 µM (active)

Question: And the AC50 [24]?
Answer: 2.44 µM (active)

Question: And the CC50 (Vero)?
Answer: 11.6 µM (active)

Question: For `Cc1nn(-c2ccccc2)c(O)c1/C=N/NC(=O)c1ccoc1C`, which CC50 [25] is on record?
Answer: 4.71 µM (active)

Question: What about the IC50 [26] of the same molecule?
Answer: 11.2 µM (active)

Question: With `CCOc1ccccc1CNc1ncnc2ccc(-c3c(C)noc3C)cc12` as the molecule, how does the AC50 [27] read?
Answer: > 70 µM (inactive)

Question: And the AC50 [24]?
Answer: 21.6 µM (active)

Question: What about the AC50 [22] of the same molecule?
Answer: 44.5 µM (active)

Question: Which CC50 (Vero) does the source give for `c1cc2c(cc1C1CCCCC1)c1c3n2CCN=C3CCC1` here?
Answer: > 25 µM (active)
